Results reported in PMC5435703 (Scientific Reports, 2017).
In brackets after ≈: the same amount, converted by molar mass. Entries after “also recorded” stand apart in the source; their conditions may differ. Like-named read-outs stand apart in the source and are kept apart here. Marks after values point to notes of the source that are not given here.

Experiments:
MRSA BAA-1707 [1] = assay: MIC broth microdilution assay; assay type: cell-based, Staphylococcus aureus; conditions: for MIC: Staphylococcus aureus
MRSA BAA-44 = assay: MIC broth microdilution assay; assay type: cell-based; conditions: Staphylococcus aureus; Table 1; read-out: MIC MRSA BAA-44
MRSA-1 = assay: MIC broth microdilution assay; assay type: cell-based, Staphylococcus aureus; conditions: Staphylococcus aureus, MRSA
MRSA-2 = assay: MIC broth microdilution assay; assay type: cell-based, Staphylococcus aureus; conditions: Staphylococcus aureus, MRSA
MRSE 35984 [2] = assay: MIC broth microdilution assay; assay type: cell-based, Staphylococcus epidermidis; conditions: for MIC: Staphylococcus epidermidis, MRSE
S. epi 12228 = assay: MIC broth microdilution assay; assay type: cell-based, Staphylococcus epidermidis; conditions: Staphylococcus epidermidis, 12228
MtB H37Ra = assay: MIC assay for Mycobacterium tuberculosis; assay type: cell-based
[3] = LDH release assay for HeLa cytotoxicity; assay type: cell-based; conditions: human, HeLa cells; LDH release, 24 hours; tested at 25, 50 and 100 µM; read-out: HeLa Cytotox. IC50
HeLa cells = assay: LDH release assay for HeLa cytotoxicity; assay type: cell-based; conditions: 100 µM
MRSA BAA-1707 [4] = assay: MIC assay with metal(II) cation co-treatment; assay type: cell-based, Staphylococcus aureus
[5] = Chemical stability in aqueous formulations; assay type: physicochemical; conditions: room temperature
[6] = Hemolysis assay with red blood cells; conditions: human, pH 7.2
VRE 700221 [7] = assay: MIC broth microdilution assay; assay type: cell-based, Enterococcus faecium; conditions: for MIC: Enterococcus, VRE
four MRSA isolates = assay: MIC assays, panel of four MRSA isolates; assay type: cell-based; conditions: Staphylococcus aureus, range over isolates, read-out: MIC against a panel of four MRSA isolates
S. epidermidis = assay: MIC assays, S. epidermidis strains; assay type: cell-based; conditions: Staphylococcus epidermidis; range over strains
MRSA BAA-1707 [8] = assay: Calgary Biofilm Device (CBD) MBC/MBEC assay; assay type: cell-based, Staphylococcus aureus; conditions: for MBC: Staphylococcus aureus
MRSE 35984 [9] = assay: Calgary Biofilm Device (CBD) MBC/MBEC assay; assay type: cell-based, Staphylococcus epidermidis; conditions: for MBC: Staphylococcus epidermidis, MRSE, CBD, planktonic killing, read-out: MRSE 35984 MBC
VRE 700221 [10] = assay: Calgary Biofilm Device (CBD) MBC/MBEC assay; assay type: cell-based, Enterococcus faecium; conditions: for MBC: Enterococcus, VRE, CBD, planktonic killing, read-out: VRE 700221 MBC
MRSA BAA-1707 [11] = assay: Macromolecular synthesis inhibition assay with [3H]-labeled precursors; assay type: cell-based, Staphylococcus aureus
Method: To characterize the antibacterial mechanism of action for HP small molecules, we investigated the effects HP 1 has against MRSA BAA-1707 on global biosynthetic pathways in rapidly-dividing (exponentially-growing) planktonic cells through quantifying the incorporation of various [^3H]-labeled precursors into their corresponding macromolecules. For these experiments, MRSA-1707 cultures were treated with [^3H]-thymidine (DNA biosynthesis), [^3H]-uridine (RNA biosynthesis) and [^3H]-leucine (protein biosynthesis) in the presence of HP 1 and antibiotic controls (4–16 x MIC).
Macromolecular syntheses experiments were carried out in methicillin-resistant Staphylococcus aureus BAA-1707. An overnight culture (100 µL) of S. aureus BAA-1707 was sub-cultured into 10 mL of fresh TSBG media which was allowed to grow to exponential phase (OD600 = 0.2–0.3) before transferring 500 µL to each well in a 24 well-plate. The test compounds and vehicle control (DMSO) were added to achieve the desired concentrations relative to their MIC values against S. aureus BAA-1707. Treated cultures were then incubated at 37 °C for 30 minutes before radioactive precursors for DNA ([^3H] thymidine (0.5 µCi)), RNA ([^3H] uridine (0.5 µCi)) and protein ([^3H] leucine (1 µCi)) were added. […] DMSO served as our negative control. DNA and RNA radiolabeled cultures were then incubated in 37 °C for 15 minutes before being stopped by adding 60 µL of cold 5% trichloroacetic acid (TCA). The protein synthesis experiment was stopped after 40 minutes by adding 60 µL cold TCA. These mixtures were then incubated at 2 °C for at least 30 minutes before the contents of the plates were transferred onto glass microfiber filters (24 mm) and washed 5 times with 1 mL of 5% TCA. The filters are allowed to dry overnight before 3.5 mL of the scintillation fluid was added to the scintillation vials containing the filters and the radiation counts were measured using liquid scintillation LS 6500.
H.) Macromolecular Synthesis Inhibition Assay: […]

[12] = Table 1, three independent experiments, read-out: MIC MRSA BAA-1707
[13] = Table 3, read-out: MRSA BAA-1707 MIC
[14] = single plate shown as picture, read-out: MIC (µM), MIC Assay against MRSA BAA-1707
[15] = single plate shown as picture, read-out: MIC (µM), MIC Assay Against MRSA-1
[16] = Table 1, read-out: MIC MRSE 35984
[17] = Table 3, read-out: MRSE 35984 MIC
[18] = Table 1, read-out: MIC S. epi 12228
[19] = single plate shown as picture, read-out: MIC (µM), MIC Assay Against MRSA-2
[20] = single plate shown as picture, read-out: MIC (µM), MIC Assay Against S. epidermidis 12228
[21] = 24 h, CBD, planktonic killing, 24 hours treatment, read-out: MRSA BAA-1707 MBC
[22] = supplement page 28, single CBD plate

SMILES | MIC (MRSA BAA-1707 [1]; [12]) [µM] | MIC (MRSA BAA-1707 [1]; [13]) [µM] | MIC (MRSA BAA-1707 [1]; [14]) [µM] | MIC (MRSA BAA-44) [µM] | MIC (MRSA-1; Table 1, read-out: MIC MRSA-1) [µM] | MIC (MRSA-1; [15]) [µM] | MIC (MRSA-2; Table 1, read-out: MIC MRSA-2) [µM] | MIC (MRSE 35984 [2]; [16]) [µM] | MIC (MRSE 35984 [2]; [17]) [µM] | MIC (S. epi 12228; [18]) [µM] | MIC (MtB H37Ra; 168 h, seven days) [µM] | IC50 at 24 h [3] [µM] | hemolysis at 1 h, 200 µM [6] [%] | MIC (MRSA-2; [19]) [µM] | MIC MRSE 35984 (MRSE 35984 [2]; Table 1) | MIC (S. epi 12228; [20]) [µM] | MIC (four MRSA isolates) [µM] | MBC (MRSA BAA-1707 [8]; [21]) [µM] | MBC (MRSE 35984 [9]) [µM] | MBC (VRE 700221 [10]) [µM] | other results
COCCOCCOCCOCCOC(=O)Oc1c(Br)cc(Br)c2nc3c(C)cccc3nc12 [HP 25] | 0.003 (≈ 0.00181 µg/mL) | 0.003 (≈ 0.00181 µg/mL) | 0.003 (≈ 0.00181 µg/mL) | 0.013 (≈ 0.00783 µg/mL) | ≤ 0.1 | 0.1 (≈ 0.0602 µg/mL) | ≤ 0.1 | 0.15 (≈ 0.0903 µg/mL) | 0.15 (≈ 0.0903 µg/mL) | ≤ 0.1 | 12.5 | > 100 | ≤ 1 | – | – | – | – | – | – | – | HeLa cell cytotoxicity at 100 µM (HeLa cells): no HeLa cell cytotoxicity; MIC (MRSA BAA-1707 [4]; Staphylococcus aureus, Cu(II) co-treatment plate, lanes without metal, read-out: MIC): 0.1 µM; MIC (MRSA BAA-1707 [4]; Staphylococcus aureus, Fe(II) co-treatment plate, lanes without metal, read-out: MIC): 0.1 µM; MIC (MRSA BAA-1707 [4]; Staphylococcus aureus, Mg(II) co-treatment plate, lanes without metal, read-out: MIC): 0.003 µM; MIC (MRSA BAA-1707 [4]; Staphylococcus aureus, Table 2, MRSA BAA-1707, no metal(II) cation added, read-out: MIC): 0.0047 µM; MIC (MRSA BAA-1707 [4]; Staphylococcus aureus, Zn(II) extended plate assay, lanes without metal, read-out: MIC): 0.003 µM; MIC (MRSA BAA-1707 [4]; Staphylococcus aureus, copper(II) at 200 µM co-treatment, read-out: MIC w/Cu2+): > 100 µM; MIC (MRSA BAA-1707 [4]; Staphylococcus aureus, iron(II) at 200 µM co-treatment, read-out: MIC w/Fe2+): 25 µM; MIC (MRSA BAA-1707 [4]; Staphylococcus aureus, magnesium(II) at 200 µM co-treatment, read-out: MIC w/Mg2+): 0.0047 µM; MIC (MRSA BAA-1707 [4]; Staphylococcus aureus, single plate, 200 µM Cu(II), read-out: MIC (µM) + Cu(II)): > 100 µM; MIC (MRSA BAA-1707 [4]; Staphylococcus aureus, single plate, 200 µM Fe(II), read-out: MIC (µM) + Fe(II)): 25 µM; MIC (MRSA BAA-1707 [4]; Staphylococcus aureus, single plate, 200 µM Mg(II), read-out: MIC (µM) + Mg(II)): 0.003 µM; MIC (MRSA BAA-1707 [4]; Staphylococcus aureus, zinc(II) at 200 µM co-treatment, read-out: MIC w/Zn2+): 7e-05 µM; MIC (MRSA BAA-1707 [4]; extended plate assay, 200 µM Zn(II), read-out: MIC (µM) + Zn(II)): 0.00005 µM; chemically stable in aqueous formulations [5]: > 1 month
CCc1cccc2nc3c(O)c(Br)cc(Br)c3nc12 [HP 18] | 0.05 to 0.3 (≈ 0.0191 to 0.115 µg/mL) | ≤ 0.1 | 0.1 (≈ 0.0382 µg/mL) | – | 0.15 (≈ 0.0573 µg/mL) | 0.2 (≈ 0.0764 µg/mL) | 0.39 (≈ 0.149 µg/mL) | 0.1 to 0.78 (≈ 0.0382 to 0.298 µg/mL) | ≤ 0.1 | 0.3 (≈ 0.115 µg/mL) | 25 | > 100 | 1.7 | 0.39 (≈ 0.149 µg/mL) | ≤ 0.10^b µM | 0.39 (≈ 0.149 µg/mL) | 0.05 to 0.59 (≈ 0.0191 to 0.225 µg/mL) | – | – | – | MIC MRSA BAA-1707 (MRSA BAA-1707 [1]; Table 1, three independent experiments): ≤ 0.10^b µM; MIC (MRSE 35984 [2]; single plate shown as picture, read-out: MIC (µM), MIC Assay Against MRSE 35984): 0.1 µM (≈ 0.0382 µg/mL); MIC (VRE 700221 [7]; Table 1, read-out: MIC VRE 700221): 0.15 µM (≈ 0.0573 µg/mL); MIC (VRE 700221 [7]; Table 3, read-out: VRE 700221 MIC): 0.15 µM (≈ 0.0573 µg/mL); MIC (VRE 700221 [7]; single plate shown as picture, read-out: MIC (µM), MIC Assay Against VRE 700221): 0.2 µM (≈ 0.0764 µg/mL); MIC VRE 700221 (VRE 700221 [7]; Table 1): 0.15^a µM; MIC (S. epidermidis): 0.1 to 0.3 µM (≈ 0.0382 to 0.115 µg/mL)
Oc1c(Br)cc(Br)c2nc3ccc(Cl)cc3nc12 [HP 22] | 0.15 (≈ 0.0583 µg/mL) | 0.15 (≈ 0.0583 µg/mL) | 0.1 (≈ 0.0388 µg/mL) | – | 0.15 (≈ 0.0583 µg/mL) | – | – | – | – | 12.5 (≈ 4.86 µg/mL) | 6.25 | > 100 | ≤ 1 | – | – | 12.5 (≈ 4.86 µg/mL) | 0.05 to 0.59 (≈ 0.0194 to 0.229 µg/mL) | – | – | – | MIC (MtB H37Ra): 2.4 µg/mL
Oc1c(Br)cc(Br)c2nc3ccccc3nc12 [HP 1, 2,4-dibromo-1-hydroxyphenazine] | – | – | – | – | 0.78 (≈ 0.276 µg/mL) | – | 2.35 (≈ 0.832 µg/mL) | 2.35 (≈ 0.832 µg/mL) | 2.35 (≈ 0.832 µg/mL) | 2.35 (≈ 0.832 µg/mL) | 25 | ~100 | ≤ 1 | 3.13 (≈ 1.11 µg/mL) | 2.35^a µM | 3.13 (≈ 1.11 µg/mL) | – | 50 (≈ 17.7 µg/mL) | 23.5 (≈ 8.32 µg/mL) | 18.8 (≈ 6.66 µg/mL) | MRSA-1707 Biofilm Eradication MBEC (MRSA BAA-1707 [8]; Figure 7A, single CBD plate): 50 µM; MBC (MRSA BAA-1707 [8]; 24 h, supplement page 27, first CBD plate, read-out: MRSA Planktonic Killing MBC): 25 µM (≈ 8.85 µg/mL); MBC (MRSA BAA-1707 [8]; 24 h, supplement page 27, second CBD plate, read-out: MRSA Planktonic Killing MBC): 25 µM (≈ 8.85 µg/mL); MBC (MRSA BAA-1707 [8]; Figure 7A, single CBD plate, read-out: MRSA-1707 Planktonic Eradication MBC): 25 µM (≈ 8.85 µg/mL); MRSE Biofilm Eradication MBEC (MRSE 35984 [9]; [22]): 250 µM; MRSE Planktonic Killing MBC (MRSE 35984 [9]; [22]): 15.6 µM; VRE Biofilm Eradication MBEC (VRE 700221 [10]; [22]): 12.5 µM; VRE Planktonic Killing MBC (VRE 700221 [10]; [22]): 12.5 µM; RNA biosynthesis inhibition ([3H]-uridine) (MRSA BAA-1707 [11]; 4 x MIC): inhibits; protein biosynthesis inhibition ([3H]-leucine) (MRSA BAA-1707 [11]; 4 x MIC): inhibits; DNA biosynthesis inhibition ([3H]-thymidine) (MRSA BAA-1707 [11]; 8 x MIC): does not inhibit; also recorded: not inhibiting
Cc1cc(Cl)c2nc3c(C)cc(Br)c(O)c3nc2c1 [HP 9] | – | – | – | 1.56 (≈ 0.527 µg/mL) | 1.56 (≈ 0.527 µg/mL) | – | 2.35 (≈ 0.793 µg/mL) | – | – | – | 50 | > 100 | ≤ 1 | – | – | – | – | > 200 | 12.5 (≈ 4.22 µg/mL) | 12.5 (≈ 4.22 µg/mL) | –
